pIC50: −log10 of the molar value. Where a name gives a salt, the structure may show the parent alone.

Consider 17 compounds from patent US9751885B2, “Cyclopropanamine compound and use thereof” (Takeda Pharmaceutical Company Limited, priority 2012, dated 2017).

In one assay the target is MAO-A enzyme (Homo sapiens (Human), UniProt P21397). Briefly: Measurement of MAO-A inhibitory activity (MAO-Glo Assay). The format is biochemical.
The target in another assay is human LSD1(172-833) (Homo sapiens (Human), UniProt O60341). Nature of the assay: Measurement of LSD1 inhibitory activity (time-resolved fluorescence, biotin-histone H3 mono methylated K4 peptide). The format is biochemical. Put shortly:
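Remaining signal detected by TR-FRET after 60 min with europium anti-histone H3 antibody and streptavidin-XL665 in potassium fluoride/0.1% BSA.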

For the next assay, the target named is MAO-B enzyme (Homo sapiens (Human), UniProt P27338). Nature of the assay: Measurement of MAO-B inhibitory activity (MAO-Glo Assay).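 Note: luminescence read-out, compound preincubated 10 min with enzyme then reacted 60 min at room temperature, inhibition relative to enzyme reaction without compound, blank lacking enzyme and compound.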 The note with it: read-out: MAO-B IC50 value.
MAO-B enzyme, sequence (P27338 whole entry): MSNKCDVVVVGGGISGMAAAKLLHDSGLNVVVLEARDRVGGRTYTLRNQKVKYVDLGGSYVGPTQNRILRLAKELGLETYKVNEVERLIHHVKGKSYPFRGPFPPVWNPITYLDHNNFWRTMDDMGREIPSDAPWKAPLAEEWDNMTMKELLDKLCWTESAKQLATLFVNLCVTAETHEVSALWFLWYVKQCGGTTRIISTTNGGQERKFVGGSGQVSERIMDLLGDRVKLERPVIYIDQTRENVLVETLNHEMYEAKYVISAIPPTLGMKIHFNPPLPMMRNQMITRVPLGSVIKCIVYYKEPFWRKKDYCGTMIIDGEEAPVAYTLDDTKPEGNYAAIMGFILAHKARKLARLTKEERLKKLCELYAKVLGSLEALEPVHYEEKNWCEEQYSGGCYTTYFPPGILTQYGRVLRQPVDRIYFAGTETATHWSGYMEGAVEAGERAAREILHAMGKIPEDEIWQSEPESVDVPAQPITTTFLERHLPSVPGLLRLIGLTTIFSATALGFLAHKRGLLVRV

MAO-A enzyme, sequence (P21397 whole entry): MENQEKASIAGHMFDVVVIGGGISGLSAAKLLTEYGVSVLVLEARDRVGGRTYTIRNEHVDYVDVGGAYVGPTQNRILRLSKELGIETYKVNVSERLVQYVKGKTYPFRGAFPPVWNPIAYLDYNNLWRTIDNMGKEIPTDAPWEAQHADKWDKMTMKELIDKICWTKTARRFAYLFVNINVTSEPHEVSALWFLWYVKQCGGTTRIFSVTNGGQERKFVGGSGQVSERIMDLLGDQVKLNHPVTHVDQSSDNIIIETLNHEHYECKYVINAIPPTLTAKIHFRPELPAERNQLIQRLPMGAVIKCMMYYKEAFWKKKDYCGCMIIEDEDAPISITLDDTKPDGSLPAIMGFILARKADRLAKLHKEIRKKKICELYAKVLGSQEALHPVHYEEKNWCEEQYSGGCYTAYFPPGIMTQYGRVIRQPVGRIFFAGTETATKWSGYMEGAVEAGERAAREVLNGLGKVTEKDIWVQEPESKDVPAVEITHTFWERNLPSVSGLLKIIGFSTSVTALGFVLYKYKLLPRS
Experimental for MAO-A enzyme: The MAO-A inhibitory activity evaluation described below followed the protocol of MAO-Glo (registered trademark) Assay of Promega KK.
A test compound dissolved in 4% DMSO was added by 12.5 μL to 25 μL reaction solution (100 mM HEPES (pH 7.5), 5% glycerol) containing 400 ng of MAO-A enzyme (Sigma-Aldrich Co. LLC.), and the mixture was reacted at room temperature for 10 min. […] After reaction at room temperature for 60 min, Luciferine detection reagent (Promega KK) (50 μL) was added to terminate the reaction. After reaction at room temperature for min with stirring, the luminescence was measured by Envision (PerkinElmer). The MAO-A inhibitory rate (%) of the test compound was calculated by the following formula. inhibitory rate(%)=(1−(test compound count−blank)÷(control−blank))×100
The count of the MAO-A enzyme reaction mixture under compound non-addition conditions is indicated as control, and the count under compound non-addition and MAO-A enzyme non-addition conditions is indicated as blank.
Experimental for MAO-B enzyme: The MAO-B inhibitory activity evaluation described below followed the protocol of MAO-Glo (registered trademark) Assay of Promega KK.
A test compound dissolved in 4% DMSO was added by 12.5 μL to 25 μL reaction solution (100 mM HEPES (pH 7.5), 5% glycerol, 10% DMSO) containing 400 ng of MAO-B enzyme (Sigma-Aldrich Co. LLC.), and the mixture was reacted at room temperature for 10 min. […] After reaction at room temperature for 60 min, Luciferine detection reagent (Promega KK) (50 μL) was added to terminate the reaction. After reaction at room temperature for 20 min with stirring, the luminescence was measured by Envision (PerkinElmer). The MAO-B inhibitory rate (%) of the test compound was calculated by the following formula. inhibitory rate(%)=(1−(test compound count−blank)÷(control−blank))×100
The count of the MAO-B enzyme reaction mixture under compound non-addition conditions is indicated as control, and the count under compound non-addition and MAO-B enzyme non-addition conditions is indicated as blank.

Usually pIC50 stands for the IC50 on a negative log10 scale, so that one unit is a factor of ten. Regarding `O=C(Nc1ccc2[nH]ncc2c1)c1cccc([C@@H]2C[C@H]2NCC2CC2)c1` (relative stereo) [Example 146, 3-(trans-2-((cyclopropylmethyl)amino)cyclopropyl)-N-(1H-indazol-5-yl)benzamide trifluoroacetate], the values for the pIC50 at MAO-A enzyme, at human LSD1(172-833) and at MAO-B enzyme were below 5.00, above 7.00 and below 5.00, respectively.

As for `O=C(Nc1ccc2[nH]c(=O)sc2c1)c1cccc([C@@H]2C[C@H]2NCC2CC2)c1` (relative stereo) [Example 147, 3-(trans-2-((cyclopropylmethyl)amino)cyclopropyl)-N-(2-oxo-2,3-dihydro-1,3-benzothiazol-6-yl)benzamide trifluoroacetate], the pIC50 on MAO-A enzyme is below 5.00; at human LSD1(172-833), above 7.00; on MAO-B enzyme, below 5.00.

Consider `CCN1C(=O)COc2cc(NC(=O)c3cccc([C@@H]4C[C@H]4NCC4CC4)c3)ccc21` (relative stereo) [Example 149, 3-(trans-2-((cyclopropylmethyl)amino)cyclopropyl)-N-(4-ethyl-3-oxo-3,4-dihydro-2H-1,4-benzoxazin-7-yl)benzamide trifluoroacetate], for which the negative-log IC50 (pIC50) on MAO-A enzyme is below 5.00; at human LSD1(172-833) it was above 7.00; on MAO-B enzyme, below 5.00.

Regarding `O=C(Nc1cnn(CC(F)(F)F)c1)c1cccc([C@@H]2C[C@H]2NCC2CC2)c1` (relative stereo) [Example 151, 3-(trans-2-((cyclopropylmethyl)amino)cyclopropyl)-N-(1-(2,2,2-trifluoroethyl)-1H-pyrazol-4-yl)benzamide hydrochloride], the negative-log IC50 (pIC50) was below 5.00 at MAO-A enzyme, above 7.00 at human LSD1(172-833) and below 5.00 on MAO-B enzyme.

Consider `Cc1cc(NC(=O)c2cccc([C@@H]3C[C@H]3NCC3CC3)c2)sn1` (relative stereo) [Example 152, 3-(trans-2-((cyclopropylmethyl)amino)cyclopropyl)-N-(3-methyl-1,2-thiazol-5-yl)benzamide hydrochloride], for which the pIC50 was below 5.00 at MAO-A enzyme, above 7.00 on human LSD1(172-833) and below 5.00 on MAO-B enzyme.

In the case of `CC(C)(C)CN[C@@H]1C[C@H]1c1cccc(C(=O)NC2CC(F)(F)C2)c1` (relative stereo) [Example 154, N-(3,3-difluorocyclobutyl)-3-(trans-2-((2,2-dimethylpropyl)amino)cyclopropyl)benzamide hydrochloride], the figures for the pIC50 against MAO-A enzyme, at human LSD1(172-833) and on MAO-B enzyme were below 5.00, above 7.00 and below 5.00, respectively.

As for `Cc1nnc(NC(=O)c2cccc([C@@H]3C[C@H]3NCC(C)(C)C)c2)s1` (relative stereo) [Example 158, 3-(trans-2-((2,2-dimethylpropyl)amino)cyclopropyl)-N-(5-methyl-1,3,4-thiadiazol-2-yl)benzamide dihydrochloride], the pIC50 is below 5.00 at MAO-A enzyme, above 7.00 at human LSD1(172-833) and below 5.00 on MAO-B enzyme.

For the compound `O=C(Nc1cnn(-c2ccc(F)cc2)c1)c1cccc([C@@H]2C[C@H]2NC2CCOCC2)c1` (relative stereo) [Example 196, N-(1-(4-fluorophenyl)-1H-pyrazol-4-yl)-3-(trans-2-(tetrahydro-2H-pyran-4-ylamino)cyclopropyl)benzamide dihydrochloride], the figures for the pIC50 against MAO-A enzyme, against human LSD1(172-833) and on MAO-B enzyme were below 5.00, above 7.00 and below 5.00, respectively.

With `O=C(Nc1cnn(-c2ccc(F)cc2)c1)c1cccc([C@@H]2C[C@H]2NC2CCS(=O)(=O)CC2)c1` (relative stereo) [Example 197, 3-(trans-2-((1,1-dioxidotetrahydro-2H-thiopyran-4-yl)amino)cyclopropyl)-N-(1-(4-fluorophenyl)-1H-pyrazol-4-yl)benzamide dihydrochloride], the negative logarithm of the IC50 (pIC50) against MAO-A enzyme was below 5.00; against human LSD1(172-833) it was above 7.00; on MAO-B enzyme it was below 5.00.

For `O=C(NC1CCCC1)c1cccc([C@@H]2C[C@H]2NC2CCN(C3CC3)CC2)c1` (relative stereo) [Example 199, N-cyclopentyl-3-(trans-2-((1-cyclopropylpiperidin-4-yl)amino)cyclopropyl)benzamide dihydrochloride], the values for the pIC50 at MAO-A enzyme, at human LSD1(172-833) and on MAO-B enzyme were below 5.00, above 7.00 and below 5.00, respectively.

As for `CN1CCC(N[C@@H]2C[C@H]2c2cccc(C(=O)NC3CCCC3)c2)CC1` (relative stereo) [Example 200, N-cyclopentyl-3-(trans-2-((1-methylpiperidin-4-yl)amino)cyclopropyl)benzamide dihydrochloride], the negative-log IC50 (pIC50) at MAO-A enzyme was below 5.00; against human LSD1(172-833), above 7.00; at MAO-B enzyme, below 5.00.

`O=C(Nc1cnn(CC2CC2)c1)c1cccc([C@@H]2C[C@H]2NC2CCC2)c1` (relative stereo) [Example 201, 3-(trans-2-(cyclobutylamino)cyclopropyl)-N-(1-(cyclopropylmethyl)-1H-pyrazol-4-yl)benzamide dihydrochloride]: the negative logarithm of the IC50 (pIC50) is below 5.00 on MAO-A enzyme, above 7.00 against human LSD1(172-833) and below 5.00 at MAO-B enzyme.

For `CN1CCC(N[C@@H]2C[C@H]2c2cccc(C(=O)Nc3cnn(CC4CC4)c3)c2)CC1` (relative stereo) [Example 202, N-(1-(cyclopropylmethyl)-1H-pyrazol-4-yl)-3-(trans-2-((1-methylpiperidin-4-yl)amino)cyclopropyl)benzamide trihydrochloride], the pIC50 was below 5.00 against MAO-A enzyme, above 7.00 against human LSD1(172-833) and below 5.00 at MAO-B enzyme.

With `O=C(Nc1cnn(CC2CC2)c1)c1cccc([C@@H]2C[C@H]2NC2CCC(F)(F)CC2)c1` (relative stereo) [Example 204, N-(1-(cyclopropylmethyl)-1H-pyrazol-4-yl)-3-(trans-2-((4,4-difluorocyclohexyl)amino)cyclopropyl)benzamide dihydrochloride], the values for the pIC50 at MAO-A enzyme, against human LSD1(172-833) and on MAO-B enzyme were below 5.00, above 7.00 and below 5.00, respectively.

Consider `O=C(NC1CCC(F)(F)CC1)c1cccc([C@@H]2C[C@H]2NC2CCN(C3CC3)CC2)c1` (relative stereo) [Example 208, 3-(trans-2-((1-cyclopropylpiperidin-4-yl)amino)cyclopropyl)-N-(4,4-difluorocyclohexyl)benzamide dihydrochloride], for which the pIC50 on MAO-A enzyme is below 5.00; against human LSD1(172-833), above 7.00; on MAO-B enzyme, below 5.00.

Turning to `Cc1ncc(NC(=O)c2cccc([C@@H]3C[C@H]3NC3CCC3)c2)s1` (relative stereo) [Example 210, 3-(trans-2-(cyclobutylamino)cyclopropyl)-N-(2-methyl-1,3-thiazol-5-yl)benzamide dihydrochloride], the results for the negative logarithm of the IC50 (pIC50) against MAO-A enzyme, against human LSD1(172-833) and at MAO-B enzyme were below 5.00, above 7.00 and below 5.00, respectively.

Regarding `Cc1ncc(NC(=O)c2cccc([C@@H]3C[C@H]3NC3CCC(F)(F)CC3)c2)s1` (relative stereo) [Example 211, 3-(trans-2-((4,4-difluorocyclohexyl)amino)cyclopropyl)-N-(2-methyl-1,3-thiazol-5-yl)benzamide dihydrochloride], the pIC50 was below 5.00 on MAO-A enzyme, above 7.00 against human LSD1(172-833) and below 5.00 at MAO-B enzyme.
